{
  "source": "patent US20240239775A1",
  "about": "“FXR REGULATOR, PREPARATION METHOD THEREFOR, PHARMACEUTICAL COMPOSITION THEREOF AND USE THEREOF” (QINGDAO RUIJI MEDICAL TECHNOLOGY CO., LTD., priority 2021, published 2024)",
  "data": [
    {"biological_target": "T1, FXR (Homo sapiens, UniProt Q96RI1)", "T1 construct": "5 μL of 20 nM FXR-LBD Complete Coregulator buffer G; purchased ThermoFisher PV4833", "T1 sequence (Q96RI1 262-486 limits assumed)": "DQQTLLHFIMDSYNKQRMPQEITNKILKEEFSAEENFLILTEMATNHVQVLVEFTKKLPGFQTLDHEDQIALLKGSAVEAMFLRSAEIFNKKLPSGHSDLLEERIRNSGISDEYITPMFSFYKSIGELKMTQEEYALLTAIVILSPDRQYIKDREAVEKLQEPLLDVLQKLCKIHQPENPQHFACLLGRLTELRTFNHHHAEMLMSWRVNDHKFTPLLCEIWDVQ", "experiment": "FXR antagonist screening by TR-FRET (LanthaScreen TR-FRET FXR co-activation assay kit)", "format": "biochemical", "settings": "Table 1.1, FXR antagonistic activity; TR-FRET with CDCA; geometric means of at least two independent runs", "description": "(§1) FXR activity was evaluated by time-resolved fluorescence resonance energy transfer (TR-FRET) assay, using LanthaScreen™ TR-FRET FXR co-activation assay kit (ThermoFisher, Cat. PV4833). For agonist screening, 10 μL of Complete Coregulator buffer G containing the corresponding concentration of the compound to be tested, 5 μL of 20 nM FXR-LBD Complete Coregulator buffer G, and 5 μL of 2.0 μM Fluorescein-SRC2-2/20 nM Tb-anti-GST antibody Complete Coregulator buffer G were added to each well of a 384-well black plate (Coring) in sequence. […] Three duplicate wells were set up for each compound, with CDCA as the positive compound and DMSO as the solvent control. For antagonist screening, 5 μL of Complete Coregulator buffer G containing the corresponding concentration of the compound to be tested, 5 μL of 20 nM FXR-LBD Complete Coregulator buffer G, 5 μL of 200 μM CDCA FXR-LBD Complete Coregulator buffer G, and 5 μL of 2.0 μM Fluorescein-SRC2-2/20 nM Tb-anti-GST antibody Complete Coregulator buffer G were added to each well of a 384-well black plate (Coring) in sequence and incubated at room temperature for 10 h. Following operations were the same as those for agonist screening", "units": {"IC50": "µM"}, "values": [
      {"smiles": "CCOC(=O)c1oc2ccc(S(=O)(=O)N(CCc3ccccc3)Cc3c(F)cccc3F)cc2c1C", "note": "[Example M4-46, ethyl 3-methyl-5-(N-(2,6-difluorobenzyl)-N-phenethylsulfamoyl)benzofuran-2-carboxylate]", "IC50": "50 to 100"},
      {"smiles": "CCOC(=O)c1oc2ccc(S(=O)(=O)N(CCc3ccccc3)Cc3ccccc3C(F)(F)F)cc2c1C", "note": "[Example M4-18, ethyl 3-methyl-5-(N-(2-trifluoromethylbenzyl)-N-phenethylsulfamoyl)benzofuran-2-carboxylate]", "IC50": "50 to 100"},
      {"smiles": "CCOC(=O)c1oc2ccc(S(=O)(=O)N(CCc3ccccc3)Cc3ccc(C#N)cc3)cc2c1C", "note": "[Example M4-33, ethyl 3-methyl-5-(N-(4-cyanobenzyl)-N-phenethylsulfamoyl)benzofuran-2-carboxylate]", "IC50": "50 to 100"},
      {"smiles": "CCOC(=O)c1oc2ccc(S(=O)(=O)N(CCc3ccccc3)Cc3ccccc3N3CCN(Cc4ccccc4)CC3)cc2c1C", "note": "[Example M10-104, ethyl 3-methyl-5-(N-(2-(4-benzylpiperazin-1-yl)benzyl)-N-phenethylsulfamoyl)benzofuran-2-carboxylate]", "IC50": "50 to 100"},
      {"smiles": "CCOC(=O)c1oc2ccc(S(=O)(=O)N(CCc3ccccc3)Cc3ccc(Cl)cc3)cc2c1C", "note": "[Example M4-29, ethyl 3-methyl-5-(N-(4-chlorobenzyl)-N-phenethylsulfamoyl)benzofuran-2-carboxylate]", "IC50": "50 to 100"},
      {"smiles": "Cc1c(C(=O)O)oc2ccc(S(=O)(=O)N(CCc3ccccc3)Cc3ccc(N4CCN(C)CC4)cc3)cc12", "note": "[Example F27-S80, 3-methyl-5-(N-(4-(4-methylpiperazin-1-yl)benzyl)-N-phenethylsulfamoyl)benzofuran-2-carboxylic acid]", "IC50": "50 to 100"},
      {"smiles": "CCOC(=O)c1oc2ccc(S(=O)(=O)N(CCc3ccccc3)Cc3ccc(C(=O)OC(C)(C)C)cc3)cc2c1C", "note": "[Example M4-40, ethyl 3-methyl-5-(N-(4-(tert-butoxycarbonyl)benzyl)-N-phenethylsulfamoyl)benzofuran-2-carboxylate]", "IC50": "50 to 100"},
      {"smiles": "CCOC(=O)c1oc2ccc(S(=O)(=O)N(CCc3ccccc3)c3ccc(N4CCN(Cc5ccccc5)CC4)cc3)cc2c1C", "note": "[Example M8-70, ethyl 3-methyl-5-(N-(4-(4-benzylpiperazin-1-yl)phenyl)-N-phenethylsulfamoyl)benzofuran-2-carboxylate]", "IC50": "50 to 100"},
      {"smiles": "CCOC(=O)c1oc2ccc(S(=O)(=O)N(CCc3ccccc3)Cc3ccc(F)cc3Cl)cc2c1C", "note": "[Example M4-56, ethyl 3-methyl-5-(N-(2-chloro-4-fluorobenzyl)-N-phenethylsulfamoyl)benzofuran-2-carboxylate]", "IC50": "50 to 100"},
      {"smiles": "CCOC(=O)c1oc2ccc(S(=O)(=O)N(CCc3ccccc3)c3ccccc3)cc2c1C", "note": "[Example M8-10]", "IC50": "50 to 100"},
      {"smiles": "CCOC(=O)c1oc2ccc(S(=O)(=O)N(CCc3ccccc3)Cc3cccc([N+](=O)[O-])c3)cc2c1C", "note": "[Example M4-25, ethyl 3-methyl-5-(N-(3-nitrobenzyl)-N-phenethylsulfamoyl)benzofuran-2-carboxylate]", "IC50": "50 to 100"}
    ]},
    {"biological_target": "T1, FXR", "experiment": "FXR antagonist screening by TR-FRET (LanthaScreen TR-FRET FXR co-activation assay kit)", "format": "biochemical", "settings": "Table 1.2, FXR antagonistic activity; TR-FRET with CDCA; geometric means of at least two independent runs", "description": "as §1", "units": {"IC50": "µM"}, "values": [
      {"smiles": "CCOC(=O)c1oc2ccc(S(=O)(=O)N(CCc3ccccc3)c3ccccc3N3CCN(C(=O)c4cc[nH]n4)CC3)cc2c1C", "note": "[Example M10-130, Ethyl 5-(N-(2-(4-(1H-pyrazole-3-carbonyl)piperazin-1-yl)phenyl)-N-phenethylsulfamoyl)-3-methylbenzofuran-2-carboxylate]", "IC50": "50 to 100"},
      {"smiles": "Cc1c(C(=O)O)oc2cc(S(=O)(=O)N(CCc3ccccc3)c3ccccc3N3CCN(C(=O)c4sccc4Br)CC3)ccc12", "note": "[Example F27-S163, 6-(N-(2-(4-(3-bromothiophene-2-formyl)piperazin-1-yl)phenyl)-N-phenethylsulfamoyl)3-methylbenzofuran-2-carboxylic acid]", "IC50": "0.1 to 10"},
      {"smiles": "Cc1c(C(=O)O)oc2ccc(S(=O)(=O)N(CCc3ccccc3)c3ccccc3N3CCN(C(=O)c4sccc4Cl)CC3)cc12", "note": "[Example F27-S126, 5-(N-(2-(4-(3-chlorothiophene-2-carbonyl)piperazin-1-yl)phenyl)-N-phenethylsulfamoyl)-3-methyl benzofuran-2-carboxylic acid]", "IC50": "0.1 to 10"},
      {"smiles": "Cc1c(C(=O)O)oc2ccc(S(=O)(=O)N(CCc3ccccc3)c3ccccc3N3CCN(C(=O)c4ccco4)CC3)cc12", "note": "[Example F27-S121, 5-(N-(2-(4-(furan-2-carbonyl)piperazin-1-yl)phenyl)-N-phenethylsulfamoyl)-3-methylbenzofuran-2-carboxylic acid]", "IC50": "0.1 to 10"},
      {"smiles": "CCOC(=O)c1oc2ccc(S(=O)(=O)N(CCc3ccccc3)c3ccccc3N3CCN(C(=O)c4ccc(C(C)=O)cc4)CC3)cc2c1C", "note": "[Example M10-115, Ethyl 5-(N-(2-(4-(4-acetylbenzoyl)piperazin-1-yl)phenyl)-N-phenethylsulfamoyl)-3-methylbenzofuran-2-carboxylate]", "IC50": "50 to 100"},
      {"smiles": "Cc1c(C(=O)O)sc2ccc(S(=O)(=O)N(CCC3CCCCC3)c3ccccc3N3CCN(C(=O)c4sccc4Br)CC3)cc12", "note": "[Example F27-S180, 5-(N-(2-(4-(3-bromothiophene-2-carbonyl)piperazin-1-yl)phenyl)-N-(2-cyclohexylethyl)sulfamoyl)-3-methylbenzothiophene-2-carboxylic acid]", "IC50": "0.1 to 10"},
      {"smiles": "CCOC(=O)c1oc2ccc(S(=O)(=O)N(CCc3ccccc3)c3ccccc3N3CCN(C(=O)c4ccc(C)c(C)c4)CC3)cc2c1C", "note": "[Example M10-132, Ethyl 5-(N-(2-(4-(3,4-Dimethylbenzoyl)piperazin-1-yl)phenyl)-N-phenethylsulfamoyl) 3-methylbenzofuran-2-carboxylate]", "IC50": "50 to 100"},
      {"smiles": "Cc1c(C(=O)O)oc2ccc(S(=O)(=O)N(CCc3ccccc3)c3ccccc3N3CCN(C(=O)C4CCCC4)CC3)cc12", "note": "[Example F27-S122, 5-(N-(2-(4-(cyclopentanecarbonyl)piperazin-1-yl)phenyl)-N-phenethylsulfamoyl)-3-methylbenzofuran-2-carboxylic acid]", "IC50": "0.1 to 10"},
      {"smiles": "Cc1c(C(=O)O)oc2ccc(S(=O)(=O)N(CCc3ccccc3)c3ccccc3N3CCN(C(=O)c4ccccc4Cc4ccccc4)CC3)cc12", "note": "[Example F27-S134, 5-(N-(2-(4-(2-benzylbenzoyl)piperazin-1-yl)phenyl)-N-phenethylsulfamoyl)3-methylbenzofuran-2-carboxylic acid]", "IC50": "0.1 to 10"},
      {"smiles": "C/C=C/C(=O)N1CCN(c2ccccc2N(CCc2ccccc2)S(=O)(=O)c2ccc3oc(C(=O)O)c(C)c3c2)CC1", "note": "[Example F27-S120, (E)-5-(N-(2-(4-(but-2-enoyl)piperazin-1-yl)phenyl)-N-phenethylsulfamoyl)-3-methylbenzofuran-2-carboxylic acid]", "IC50": "0.1 to 10"},
      {"smiles": "Cc1c(C(=O)O)oc2ccc(S(=O)(=O)N(CCc3ccccc3)c3ccccc3N3CCN(C(=O)c4ccc(Br)s4)CC3)cc12", "note": "[Example F27-S123, 5-(N-(2-(4-(5-bromothiophene-2-carbonyl)piperazin-1-yl)phenyl)-N-phenethylsulfamoyl)-3-methyl benzofuran-2-carboxylic acid]", "IC50": "0.1 to 10"},
      {"smiles": "CCOC(=O)c1oc2ccc(S(=O)(=O)N(CCc3ccccc3)c3ccccc3N3CCN(C(=O)c4ccc(Br)s4)CC3)cc2c1C", "note": "[Example M10-123, Ethyl 5-(N-(2-(4-(5-bromothiophene-2-carbonyl)piperazin-1-yl)phenyl)-N-phenethylsulfamoyl)-3-methylbenzofuran-2-carboxylate]", "IC50": "50 to 100"}
    ]}
  ]
}
